Data on two molecules can be found in article PMC6958661, “Regulatory Role of PlaR (YiaJ) for Plant Utilization in Escherichia coli K-12” (Scientific Reports, 2019).

The test concerns the target T1, PlaR (YiaJ) (Escherichia coli, UniProt P37671).
T1 sequence (P37671 1-282): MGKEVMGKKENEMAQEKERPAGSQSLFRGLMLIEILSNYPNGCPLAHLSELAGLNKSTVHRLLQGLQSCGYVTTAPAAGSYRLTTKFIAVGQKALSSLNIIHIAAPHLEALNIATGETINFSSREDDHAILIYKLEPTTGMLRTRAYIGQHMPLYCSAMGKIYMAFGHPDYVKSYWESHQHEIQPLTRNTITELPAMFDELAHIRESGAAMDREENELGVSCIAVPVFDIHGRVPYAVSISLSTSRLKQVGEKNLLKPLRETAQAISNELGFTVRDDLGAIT
As to the kind of experiment: gel shift assay, dissociation of PlaR from yiaK promoter DNA. Format: binding. The note with it: 2.5 uM PlaR, yiaK promoter probe, 1-25 mM compound, 37 °C, pH 7.8, 150 mM NaCl, 3 mM Mg acetate; effector (inducer).

Molecules are shown by their SMILES.

As for `O=C1O[C@H]([C@@H](O)CO)C(O)=C1O` [L-ascorbate], the “gel shift assay, dissociation of PlaR from yiaK promoter DNA” value was “Both the metabolites induced a dose-dependent dissociation in vitro of PlaR from the PlaR-yiaK promoter”.
In the case of `O=C(O)[C@H]1O[C@H](O)[C@H](O)[C@@H](O)[C@H]1O` [α-D-galacturonate], the “gel shift assay, dissociation of PlaR from yiaK promoter DNA” value is reported as “Both the metabolites induced a dose-dependent dissociation in vitro of PlaR from the PlaR-yiaK promoter”.
